Results published in US20210317092A1 (BAYER PHARMA AKTIENGESELLSCHAFT, priority 2016, published 2021).
pIC50: −log10 of the molar value. Where two headings read alike, the source gives them in different places.

How the values were obtained:
[1] = biological target: T1, human Bradykinin B1 receptor (Homo sapiens, UniProt P46663); test: Calcium flux Assay (FLIPR) with recombinant CHO-K1 cells expressing human Bradykinin B1 receptor, in presence (hB1 IC50) or absence (hB1 free IC50) of 0.1% BSA; type: cell-based
T1 construct: host or cells: CHO-K1
T1 sequence (P46663 1-353): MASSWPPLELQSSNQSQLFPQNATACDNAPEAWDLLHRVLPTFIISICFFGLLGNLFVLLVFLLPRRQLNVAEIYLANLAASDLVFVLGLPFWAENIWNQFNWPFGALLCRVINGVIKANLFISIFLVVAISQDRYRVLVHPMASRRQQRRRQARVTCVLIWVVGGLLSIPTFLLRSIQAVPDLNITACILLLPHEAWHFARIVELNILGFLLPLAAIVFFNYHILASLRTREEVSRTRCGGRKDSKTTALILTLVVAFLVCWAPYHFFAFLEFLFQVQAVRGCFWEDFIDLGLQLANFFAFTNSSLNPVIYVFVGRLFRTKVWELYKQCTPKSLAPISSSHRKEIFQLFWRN

[2] = biological target: T2, native human Bradykinin B1 receptor (Homo sapiens, UniProt P46663); test: Calcium flux Assay (FLIPR) with human fibroblasts expressing Bradykinin B1 receptor (hB1 IMR-90); type: cell-based; settings: IMR-90 human fibroblasts expressing native Bradykinin B1 receptor
T2 construct: which express native human Bradykinin B1 receptor after induction with human IL-10; Coriell Institute; host or cells: IMR-90 human foetal lung fibroblasts, cytokine-induced
T2 sequence (P46663 1-353): T1 sequence (P46663 1-353)
Method in brief: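 IMR-90 human foetal lung fibroblasts induced with 0.35 ng/mL […] for 3 h, Fluo-4/AM-loaded, preincubated with compound (8 concentrations, triplicate) for 30 min at 28 °C, then challenged with Lys-(Des-Arg)-bradykinin at EC90. Ca2+ fluorescence was read at 538 nm; full inhibition set by 20 µM Lys-(Des-Arg-Leu)-bradykinin; IC50 derived.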

[3] = in absence of 0.1% BSA, read-out: hB1 free IC50
[4] = in presence of 0.1% BSA, read-out: hB1 IC50

pIC50 [1, 3]	pIC50 [1, 4]	pIC50 [2]	Structure (SMILES)
8.11	7.46	7.47	CCOc1ccc(-c2cc(O)c(NC(=O)C3(c4cccc(Cl)c4)CC3)cc2-c2nnn[nH]2)cn1 [Example 263, 1-(3-chlorophenyl)-N-[4-(6-ethoxypyridin-3-yl)-2-hydroxy-5-(1H-tetrazol-5-yl)phenyl]cyclopro-panecarboxa-mide]
8.58	–	8.64	Cc1cc(-c2c(F)cc(NC(=O)C3(c4ccc(C(F)(F)F)cc4F)CC3)cc2-c2nnn[nH]2)ccn1 [Example 265, N-[3-fluoro-4-(2-methylpyridin-4-yl)-5-(1H-tetrazol-5-yl)phenyl]-1-[2-fluoro-4-(trifluoromethyl)phenyl]cyclopro-panecarboxamide]
8.46	–	8.62	Cc1ccc(-c2c(F)cc(NC(=O)C3(c4ccc(C(F)(F)F)cc4F)CC3)cc2-c2nnn[nH]2)cn1 [Example 266, N-[3-fluoro-4-(6-methylpyridin-3-yl)-5-(1H-tetrazol-5-yl)phenyl]-1-[2-fluoro-4-(trifluoromethyl)phenyl]cyclopro-panecarboxamide]
7.72	–	7.32	O=C(Nc1cc(F)c(-c2ccnc(C(F)(F)F)c2)c(-c2nnn[nH]2)c1)C1(c2ccc(C(F)(F)F)cc2F)CC1 [Example 267, N-{3-fluoro-5-(1H-tetrazol-5-yl)-4-[2-(trifluoromethyl)pyridin-4-yl]phenyl}-1-[2-fluoro-4-(trifluoromethyl)phenyl]cyclopro-panecarboxamide]
7.64	–	7.79	CC(F)(F)c1ccc(-c2ccc(NC(=O)C3(c4ccc(F)c(F)c4)CC3)cc2-c2nnn[nH]2)cn1 [Example 279, N-{4-[6-(1,1-difluoroethyl)py-ridin-3-yl]-3-(1H-tetrazol-5-yl)phenyl}-1-(3,4-difluorophenyl)cy-clopropanecar-boxamide]
8.22	–	8.21	CC(F)(F)c1ccc(-c2ccc(NC(=O)C3(c4ccc(C(F)(F)F)cc4F)CC3)cc2-c2nnn[nH]2)cn1 [Example 281, N-{4-[6-(1,1-difluoroethyl)py-ridin-3-yl]-3-(1H-tetrazol-5-yl)phenyl}-1-[2-fluoro-4-(trifluoromethyl)phenyl]cyclopro-panecarboxamide]
7.65	–	8.63	Cc1ccc(C2(C(=O)Nc3ccc(-c4ccc(C(F)(F)F)nc4)c(-c4nnn[nH]4)c3)CC2)c(F)c1 [Example 291, 1-(2-fluoro-4-methylphenyl)-N-{3-(1H-tetrazol-5-yl)-4-[6-(trifluoromethyl)pyridin-3-yl]phenyl}cyclopro-panecarboxa-mide]
6.53	–	6.58	COc1cc(C(F)(F)F)ccc1C1(C(=O)Nc2ccc(-c3ccc(C(F)(F)F)nc3)c(-c3nnn[nH]3)c2)CC1 [Example 293, 1-[2-methoxy-4-(trifluoromethyl)phenyl]-N-{3-(1H-tetrazol-5-yl)-4-[6-(trifluoromethyl)pyridin-3-yl]phenyl}cyclopro-panecarboxa-mide]
8.22	–	8.21	O=C(Nc1ccc(-c2ccc(C(F)(F)F)nc2)c(-c2nnn[nH]2)c1)C1(c2ccc(OC(F)(F)F)cc2F)CC1 [Example 294, 1-[2-fluoro-4-(trifluoromethoxy)phenyl]-N-{3-(1H-tetrazol-5-yl)-4-[6-(trifluoromethyl)pyridin-3-yl]phenyl}cyclopro-panecarboxa-mide]
7.62	–	7.47	O=C(Nc1ccc(-c2ccnc(C(F)(F)F)c2)c(-c2nnn[nH]2)c1)C1(c2ccc(OC(F)(F)F)cc2F)CC1 [Example 295, 1-[2-fluoro-4-(trifluoromethoxy)phenyl]-N-{3-(1H-tetrazol-5-yl)-4-[2-(trifluoromethyl)pyridin-4-yl]phenyl}cyclopro-panecarboxa-mide]
7.70	7.65	7.34	Cc1cncc(-c2ccc(NC(=O)C3(c4cccc(Cl)c4)CC3)cc2-c2nnn[nH]2)c1 [Example 326, 1-(3-chlorophenyl)-N-[4-(5-methylpyridin-3-yl)-3-(1H-tetrazol-5-yl)phenyl]cyclopro-panecarboxa-mide]
